Source: the NIST ThermoML archive (doi:10.1016/j.jct.2010.08.021)
Where “and” joins values, the source holds several entries; their conditions need not be identical. Identical values can stand only once. Numbers after ± are expanded uncertainties.

Test: mn = molality of the nth substance listed, in mol/kg
Conditions: 101 kPa, Liquid; for speed of sound: Sing-around technique in a fixed-path interferometer; for mass density: Vibrating tube method

N.N.O=C(O)CC(O)(CC(=O)O)C(=O)O [ammonium citrate, dibasic] + O
Conditions	mass density, 303.15 K	mass density, 308.15 K	mass density, 313.15 K	speed of sound, 303.15 K	speed of sound, 308.15 K	speed of sound, 313.15 K
m1 = 0.0059	996.228 ± 0.19 kg/m3	994.605 ± 0.18 kg/m3	992.787 ± 0.14 kg/m3	1510.1 ± 1.2 m/s	1520.8 ± 1.2 m/s	1529.8 ± 1.2 m/s
m1 = 0.0071	996.341 ± 0.15 kg/m3	994.721 ± 0.15 kg/m3	992.9 ± 0.15 kg/m3	1510.3 ± 1.2 m/s	1520.9 ± 1.2 m/s	1530 ± 1.2 m/s
m1 = 0.0087	996.506 ± 0.15 kg/m3	994.88 ± 0.15 kg/m3	993.06 ± 0.14 kg/m3	1510.5 ± 1.2 m/s	1521.1 ± 1.2 m/s	1530.2 ± 1.2 m/s
m1 = 0.0129	996.916 ± 0.14 kg/m3	995.288 ± 0.14 kg/m3	993.463 ± 0.14 kg/m3	1511 ± 1.2 m/s	1521.6 ± 1.2 m/s	1530.7 ± 1.2 m/s
m1 = 0.0177	997.381 ± 0.15 kg/m3	995.753 ± 0.15 kg/m3	993.924 ± 0.15 kg/m3	1511.6 ± 1.2 m/s	1522.2 ± 1.2 m/s	1531.3 ± 1.2 m/s
m1 = 0.0222	997.837 ± 0.15 kg/m3	996.203 ± 0.14 kg/m3	994.373 ± 0.15 kg/m3	1512.2 ± 1.2 m/s	1522.8 ± 1.2 m/s	1531.8 ± 1.2 m/s
m1 = 0.0266	998.259 ± 0.14 kg/m3	996.623 ± 0.14 kg/m3	994.79 ± 0.14 kg/m3	1512.6 ± 1.2 m/s	1523.2 ± 1.2 m/s	1532.2 ± 1.2 m/s
m1 = 0.0311	998.698 ± 0.14 kg/m3	997.058 ± 0.14 kg/m3	995.224 ± 0.14 kg/m3	1513.2 ± 1.2 m/s	1523.8 ± 1.2 m/s	1532.8 ± 1.2 m/s
m1 = 0.0354	999.119 ± 0.15 kg/m3	997.475 ± 0.15 kg/m3	995.638 ± 0.14 kg/m3	1513.8 ± 1.2 m/s	1524.3 ± 1.2 m/s	1533.3 ± 1.2 m/s
m1 = 0.0423	999.789 ± 0.14 kg/m3	998.143 ± 0.14 kg/m3	996.299 ± 0.14 kg/m3	1514.6 ± 1.2 m/s	1525.1 ± 1.2 m/s	1534.1 ± 1.2 m/s
m1 = 0.0446	1000.02 ± 0.14 kg/m3	998.37 ± 0.14 kg/m3	996.527 ± 0.14 kg/m3	1514.9 ± 1.2 m/s	1525.4 ± 1.2 m/s	1534.3 ± 1.2 m/s
m1 = 0.0468	1000.23 ± 0.15 kg/m3	998.58 ± 0.15 kg/m3	996.735 ± 0.15 kg/m3	1515.1 ± 1.2 m/s	1525.6 ± 1.2 m/s	1534.6 ± 1.2 m/s
m1 = 0.0492	1000.48 ± 0.14 kg/m3	998.825 ± 0.14 kg/m3	996.978 ± 0.14 kg/m3	1515.4 ± 1.2 m/s	1525.9 ± 1.2 m/s	1534.8 ± 1.2 m/s
m1 = 0.0562	1001.11 ± 0.14 kg/m3	999.453 ± 0.14 kg/m3	997.604 ± 0.14 kg/m3	1516.2 ± 1.2 m/s	1526.7 ± 1.2 m/s	1535.6 ± 1.2 m/s
m1 = 0.0645	1001.92 ± 0.14 kg/m3	1000.26 ± 0.14 kg/m3	998.406 ± 0.14 kg/m3	1517.2 ± 1.2 m/s	1527.7 ± 1.2 m/s	1536.6 ± 1.2 m/s
m1 = 0.0748	1002.88 ± 0.14 kg/m3	1001.21 ± 0.14 kg/m3	999.345 ± 0.14 kg/m3	1518.4 ± 1.2 m/s	1528.8 ± 1.2 m/s	1537.7 ± 1.2 m/s
m1 = 0.0797	1003.36 ± 0.14 kg/m3	1001.68 ± 0.14 kg/m3	999.818 ± 0.14 kg/m3	1519 ± 1.2 m/s	1529.4 ± 1.2 m/s	1538.2 ± 1.2 m/s
m1 = 0.09	1004.34 ± 0.14 kg/m3	1002.65 ± 0.14 kg/m3	1000.78 ± 0.14 kg/m3	1520.2 ± 1.2 m/s	1530.5 ± 1.2 m/s	1539.3 ± 1.2 m/s
m1 = 0.5	1040.04 ± 0.18 kg/m3 and 1040.04 ± 0.14 kg/m3 and 1040 ± 0.18 kg/m3	1038.13 ± 0.18 kg/m3 and 1038.12 ± 0.14 kg/m3 and 1038.08 ± 0.18 kg/m3	1036.06 ± 0.18 kg/m3 and 1036.02 ± 0.18 kg/m3	1565.1 ± 1.4 m/s and 1564.9 ± 1.3 m/s and 1564.9 ± 1.4 m/s	1573.9 ± 1.4 m/s and 1573.7 ± 1.3 m/s and 1573.7 ± 1.4 m/s	1581.2 ± 1.4 m/s and 1581 ± 1.3 m/s and 1581 ± 1.4 m/s
m1 = 0.988	1077.11 ± 0.2 kg/m3	1075.01 ± 0.2 kg/m3	1072.78 ± 0.2 kg/m3	1615 ± 1.4 m/s	1622.1 ± 1.4 m/s	1628 ± 1.4 m/s
m1 = 0.997	1077.07 ± 0.15 kg/m3	1074.96 ± 0.15 kg/m3	1072.73 ± 0.15 kg/m3	1614.9 ± 1.3 m/s	1622 ± 1.3 m/s	1627.9 ± 1.3 m/s
m1 = 0.998	1077.11 ± 0.2 kg/m3	1075.01 ± 0.2 kg/m3	1072.78 ± 0.2 kg/m3	1615 ± 1.4 m/s	1622.1 ± 1.4 m/s	1628 ± 1.4 m/s
